In patent publication US9073880B2, “2-(2-phenylethenyl) 1,3-benzodiazepine derivatives useful for the treatment of cancer” (Yissum Research Development Company of the Hebrew …, priority 2010, dated 2015) one finds IC50 data, which are given here for 2 compounds.

Usually IC50 stands for the concentration that inhibits the measured activity by half. A high value points to a need for much substance.

Common to all, as to assay type: cell-based
Assay [1] deals with human hepatocarcinoma HepG2 cells. The assay can be described thus: Cell proliferation, HepG2 (Example 4). The conditions noted are these: compound in 2-hydroxypropyl-β-cyclodextrin. How it is done:
(§1) Human ovary cancer A2780 cells lines were seeded at a density of 5000 cells/well, human melanoma A375 cells were plated at a density of 2,500 cells/well, human colon carcinoma HCT15 cells were plated at a density of 3,000 cells/well, human prostate carcinoma PC3 cells were plated at a density of 1,500 cells/well, human breast carcinoma MCF7 cells were plated at a density of 5,000 cells/well, human breast carcinoma MDA MB 468 cells were plated at a density of 6,000 cells/well, human myeloma U266, RPMI8226 and CAG cells were plated at a density of 10,000 cells/well. All cells were plated in 96-well plates in 90 μl growth medium containing 10% FCS, 100 units/ml penicillin and 100 μg/ml streptomycin. Compound 3 was added a day later in […] of 1% DMSO in DDW to obtain final concentrations of 0, 0.1, 0.3, 1, 3, and 10 μM. The final concentration of DMSO (0.1% DMSO) was kept constant in all samples. Following exposure of the cells to compound 3 for 72 hours at 37° C., adhered cells were fixed in 0.5% gluteraldehyde in medium for 10 min, washed three times with DDW, once with 0.1M sodium borate buffer pH 8.5 and stained with 1% methylene blue dissolved in 0.1M borate buffer solution for 60 min. Excess dye was washed out and cell-bound dye was eluted with 200 μl/well of 0.1M HCl. The optical density values were read at 630 nm in ELISA plate reader. Non-adhered cells were exposed to WST-1 reagent for 5 hours following 72 hours treatment with the inhibitors, and optical density values were read at 630 nm in ELISA plate reader. The data was analyzed in Microsoft Excel, using the vehicle control as 100% proliferation. The assays were performed in triplicates. The values of IC50 were derived from the dose-dependent growth curves obtained.
(§2) Cell proliferation assay was performed as described in Example 2. […]

Assay [2] relates to human multiple myeloma CAG cells. The assay can be described thus: Cell proliferation, CAG (Example 4). The conditions noted are these: compound in 2-hydroxypropyl-β-cyclodextrin. The procedure:
as §1, §2

Assay [3] concerns human melanoma YUMAC cells. The assay can be described thus: Cell proliferation, YUMAC (Example 4). Particulars: compound in 2-hydroxypropyl-β-cyclodextrin. How it is done:
as §1
(§3) Cell proliferation assay was performed as described in Example 2. The following cell line were plated in 96-well plates in 90 μl growth medium containing 10% FCS, 100 units/ml penicillin and 100 μg/ml streptomycin: human ovary cancer A2780 cells (4500 cells/well), human melanoma A375 (1500 cells/well) and YUMAC (2500 cells/well) cells, human colon carcinoma HCT15 (3000 cells/well) and HCT116 (2000 cells/well) cells, human prostate carcinoma PC3 (3000 cells/well), PC3MM2 (3500 cells/well) and DU145 (300 cells/well) cells, human hepatocarcinoma HepG2 (3000 cells/well), human Ewing sarcoma SK-ES-1 (4,500 cells/well), human glioblastoma U138MG (2,000 cells/well), human breast cancer T47D (4000 cells/well) and MDA-MB-468 (6000 cells/well) cells, human small cell lung carcinoma NCI-H1975 (5000 cells/well) cells, human osteosarcoma Saos-2 (5000 cells/well) cells, human pancreatic cancer ASPC (2500 cells/well) cells, human bladder carcinoma T24P (1000 cells/well) cells, human gastric cancer NCI-N87 (5000 cells/well) cells, human lymphoma KARPAS (5,000 cells/well) cells, human leukemia K562 (5,000 cells/well) cells and human multiple myeloma MM1S (10,000 cells/well), U266 (10,000 cells/well) and CAG (5,000 cells/well). Compounds 2-5 and 7-8 were added a day later in 10 μl of 0.7% 2-hydroxypropyl-β-cyclodextrin to obtain final concentrations of 0, 0.1, 0.3, 1, 3 and 10 μM.
(§4) Compounds 2-5 and 7-8 of the present invention were tested for their inhibitory potential in cell proliferation assay. […]

Assay [4] has as its system human lymphoma KARPAS cells. The assay can be described thus: Cell proliferation, KARPAS (Example 4). Particulars: compound in 2-hydroxypropyl-β-cyclodextrin. How it is done:
as §1, §2

The subject of assay [5] is human breast cancer MDA-MB-468 cells. Kind of assay: Cell proliferation, MDA-MB-468 (Example 4). Particulars: MDA-MB-468, breast cancer, compound in 2-hydroxypropyl-β-cyclodextrin. The procedure: as §1, §2
Assay [6] concerns human leukemia K562 cells. Kind of assay: Cell proliferation, K562 (Example 4). Particulars: compound in 2-hydroxypropyl-β-cyclodextrin. The procedure:
as §1, §3, §4

The test system of the next assay is human NCI-H1975 cells. Kind of assay: Cell proliferation, NCI-H1975 (Example 4). Particulars: NCI-H1975, SCLC, compound in 2-hydroxypropyl-β-cyclodextrin. The procedure: as §1, §2
Assay [7] has as its system human prostate carcinoma PC3MM2 cells. Kind of assay: Cell proliferation, PC3MM2 (Example 4). The conditions noted are these: PC3MM2, prostate cancer, compound in 2-hydroxypropyl-β-cyclodextrin. The procedure:
as §1, §2

Assay [8] has as its system human glioblastoma U138MG cells. The assay can be described thus: Cell proliferation, U138MG (Example 4). The conditions noted are these: U138-MG, compound in 2-hydroxypropyl-β-cyclodextrin. The procedure: as §1, §2
In assay [9] the test system is human osteosarcoma Saos-2 cells. Kind of assay: Cell proliferation, Saos-2 (Example 4). Particulars: Saos-2, osteosarcoma, compound in 2-hydroxypropyl-β-cyclodextrin. The procedure: as §1, §2
Assay [10] concerns human Ewing sarcoma SK-ES-1 cells. The assay can be described thus: Cell proliferation, SK-ES-1 (Example 4). The conditions noted are these: SK-ES1, SK-ES-1, Ewing sarcoma, compound in 2-hydroxypropyl-β-cyclodextrin. How it is done: as §1, §2
For assay [11], the system named is Human ovary cancer A2780 cells. The assay can be described thus: Cell proliferation, A2780 (Example 4). Particulars: compound in 2-hydroxypropyl-β-cyclodextrin. The procedure: as §1, §2
The subject of assay [12] is human prostate carcinoma DU145 cells. The assay can be described thus: Cell proliferation, DU145 (Example 4). The conditions noted are these: DU-145, DU145, prostate cancer, compound in 2-hydroxypropyl-β-cyclodextrin. How it is done:
as §1, §2

On to `O=c1c(O)cc2cnc(/C=C/c3cc(O)c(O)c(Br)c3)sc-2c1O` [Compound 3], for which the IC50 in [1] was 900 nM; in assay [2], 900 nM; in [3] it was 300 nM; in assay [4], 500 nM; in [5], 4700 nM; in assay [6], 500 nM. Also, the IC50 in the assay on human NCI-H1975 cells amounted to 1000 nM; in assay [7], 2300 nM; in assay [8] it was 300 nM; in [9], 3100 nM; in [10], 300 nM; in assay [11], 400 nM. The compound also gave an IC50 in assay [12] of 2300 nM.
With `O=c1c(O)cc2cnc(/C=C/c3ccc(O)c(O)c3Br)sc-2c1O` [Compound 5], the IC50 was 1600 nM in assay [1]; 700 nM in assay [2]; 200 nM in [3]; 900 nM in assay [4]; 2900 nM in assay [5]; 500 nM in [6]. Besides, the IC50 was 800 nM in the assay on human NCI-H1975 cells; 1800 nM in assay [7]; 300 nM in [8]; 2800 nM in assay [9]; 600 nM in [10]; 400 nM in assay [11]. The compound also gave an IC50 in [12] of 2700 nM.
